Measured values taken from patent US20260144796A1, “Compounds and Methods for Improving Health” (Acurx Pharmaceuticals, Inc., priority 2022, published 2026).
≈ marks a conversion by molar mass, not a printed value. Read-outs that look alike come from different tables or passages of the source.

How the values were obtained:
gut microbiome = test: Germ-free humanized mouse study, 16S rRNA gut microbiome analysis; type: in vivo; conditions: humanized germ-free mice; for proportional change of Bacteroidetes (in words): phylum level
From the text: Germ-free (GF) mice (six per group) were randomly assigned to IBZ, VAN, FDX, MTZ, or control groups.
An oral gavage of healthy human-derived fecal slurry was given to GF mice. The humanized mice were housed in a sterile biological safety cabinet (BSC) for one week to allow the donor gut microbiome to establish. Humanized mice were then moved to sterile, micro-isolator cages and pellet chow diet was exchanged for a powder chow diet. The humanized mice were then allowed one week to acclimate to the powder chow diet. In addition, a stool sample was obtained prior to the change in diet (baseline 1). At day 14, once the mice acclimated to the powder chow diet, a second baseline stool sample was obtained (baseline 2) and antibiotic treatment was started. The appropriate antibiotics were added to the powder chow diet for 10 days. At day 16, two days after beginning antibiotic treatment, another stool sample was collected (ABX-1). During the 10-day antibiotic treatment, powder chow dishes were refilled each day with fresh chow containing the randomly assigned antibiotic. Stool samples were again collected at day 24 (ABX-2).
To assess antibiotic microbiome effect, 16S rRNA metagenomics was used on stool samples that were collected at day 0 (baseline 1 and baseline 2) and after 2 and […] of treatment with antibiotics. Bulk DNA was extracted from stool samples using the DNeasy® PowerSoil® Kit. The V4 region of the bacterial 16S rRNA gene was sequenced using the Illumina MiSeq and CLC Genomics Workbench. Raw sequencing reads were processed and curated using the mothur (v.1.48.0) software package and the mothur MiSeq SOP was followed as outlined in Schloss, P. D., et al., Introducing mothur: open-source, platform-independent, community supported software for describing and comparing microbial communities. Appl Environ Microbiol, 2009. 75(23): p. 7537-41 (see also, Kozich, J. J., et al., Development of a dual-index sequencing strategy and curation pipeline for analyzing amplicon sequence data on the MiSeq Illumina sequencing platform. Appl Environ Microbiol, 2013. 79(17): p. 5112-20.). All data visualization and statistical analysis were performed using R studio (R Core Team (2023). R: A Language and Environment for Statistical Computing, Vienna, Austria.).

[1] = system: C. difficile biofilms (strains R20291, CD 630); test: C. difficile in vitro biofilm studies (MIC, MBIC, CFU/mL, Crystal Violet biomass); type: cell-based
Experimental: A basic flow chart outlining the experimental procedure used in these studies may be seen in FIG. 14. Briefly, C. difficile laboratory strain R20291 was grown in Brain heart infusion-supplemented (BHIS) medium. […] Biofilm formation was established via anaerobic incubation of the cultures at 37° C. for 24 hrs. Early biofilm formation was established at 4 hrs, whereas late biofilm formation was established at 24 hrs, 48 hrs, and 72 hrs. Following biofilm formation, the BHIS medium was removed and replaced with fresh media comprising no antibiotic (control), ibezapolstat (IBZ), Fidaxomicin (FDX), or metronidazole (MTZ). The cultures were then anaerobically incubated for 24 hrs or subjected to time course tests. Biofilm biomass was measured using Crystal Violet staining. […] Data was measured and recorded using Cytation 3 calibrated to read at A570. Data was analyzed by comparing percent growth of antibiotic treated cultures with controls.

Clostridioides difficile = test: MIC determination, C. difficile strains; type: cell-based
From the text: Fecal samples homogenized in reduced PBS (0.1 g stool/ml PBS) and serially diluted and plated directly onto YCFA7 agar supplemented with 0.002 g/ml each of glucose, maltose and cellobiose in large (13.5 cm diameter) petri dishes. Isolated colonies were identified by PCR amplification of the full-length 16S rRNA gene (using 7F (5′-[…]-3′) forward primer and 1510R (5′-[…]-3′) reverse primer followed by Sanger sequencing. Full-length 16S rRNA gene sequence reads were aligned using CLC Genomics (Qiagen) using the Ribosomal Database Project (RDP) as reference to classify reads to Operational Taxonomic Units (OTUs). The full-length 16S rRNA gene sequence of each species-level OTU was compared to the Ribosomal Database Project (RDP) reference database to assign taxonomic designations to the genus level and a BLAST search performed to identify any candidate novel species.
Strains plated onto blood agar (Hardy Diagnostics) with a 24-hour incubation at 37° C. in an anaerobic environment (Coy vinyl anaerobic chamber). After incubation, 3-5 well-isolated colonies were suspended into 5 mL of BHI broth (Criterion Media). The cultures were incubated in an anaerobic chamber for 24 hours to achieve a 0.5 McFarland Standard. Brucella agar with 5% hemin (5 ug/mL) (Sigma), vitamin K (10 ug/mL), and defibrinated sheep blood (Northeast Lab Services). The supplemented brucella agar was then utilized for two-fold serial dilution to create plates with IBZ concentration of 0.5 to 16 μg/mL plates. Plates were allowed to dry in a sterile location. After drying, the plates were covered with foil to prevent any photo-damage to the hemin and placed in the anaerobic chamber for 1 hour to reduce the media. The broth culture was then spotted onto the plates and covered with foil. Plates were allowed to dry completely before inverting them for incubation for 48 hours. Plates were analyzed and MIC recorded.

[2] = antibiotic in powder chow 10 days
[3] = antibiotic in powder chow 10 days, compared to Baseline 2 (D14)

O=c1[nH]c(NCc2ccc(Cl)c(Cl)c2)nc2ncn(CCN3CCOCC3)c12 [Ibezapolstat, 2-((3,4-dichlorobenzyl)amino)-7-(2-morpholinoethyl)-1,7-dihydro-6H-purin-6-one]
proportional change of Bacteroidetes (in words) (gut microbiome): proportional increases | proportional change of Bacteroidetes (in words) (gut microbiome; listed as IBZ): significant proportional increase | Average Change in Metric ± SD, Bray-Curtis Dissim. to Baseline 1 (gut microbiome; [2]): 0.81 ± 0.02 | Average Change in Metric ± SD, Bray-Curtis Dissim. to Baseline 2 (gut microbiome; [2]): 0.68 ± 0.03 | Avg. Change in Relative Abundance ± SD, Actinobacteria (gut microbiome; [3]): 0.02% ± 0.08% | Avg. Change in Relative Abundance ± SD, Bacteroidetes (gut microbiome; [3]): 34% ± 2.96% | Avg. Change in Relative Abundance ± SD, Proteobacteria (gut microbiome; [3]): 9.7% ± 3.12% | C. diff growth (CFU/mL) and biomass at sub-MIC compared to control ([1]; 0.4× MIC): reduced | growth in early biofilms at supra-MIC ([1]; 40× MIC, after 48 hours of treatment): eradicated growth | MBIC ([1]; C. diff. strain R20291, Minimum Biofilm Inhibitory Concentration): 4 µg/mL | MIC ([1]; Clostridioides difficile, C. diff. strain R20291, read-out: MIC): 4 mg/L (≈ 9.45 µM) | MIC50 (Clostridioides difficile; Clostridioides difficile, N=6): 0.5 mg/L (≈ 1.18 µM) | MIC (Clostridioides difficile; Clostridioides difficile, N=6, read-out: MIC Max): 1 mg/L (≈ 2.36 µM) | MIC (Clostridioides difficile; Clostridioides difficile, N=6, read-out: MIC Min): 0.25 mg/L (≈ 0.591 µM) | MIC (Clostridioides difficile; Clostridioides difficile, strains of C. difficile, highly active): ≤ 2 mg/L | MIC (Clostridioides difficile; strains of C. difficile, highly active): < 2 mg/L
